In patent US8591892B2, “FTY720 increases CD74 expression and sensitizes cancer cells to anti-CD74 antibody-mediated cell death” (The Ohio State University, priority 2011, dated 2013):

How the values were obtained:
[1] = test system: Jeko cells engrafted in SCID mice; assay: Preclinical model of human MCL in SCID mice, survival; format: in vivo, mouse; settings: n=10/group, from day 15; FTY720 5 mg/kg i.p. daily 2 weeks; antibodies 15 mg/kg i.p. every three days
Procedure: Evaluation of in vivo therapeutic activity of FTY720 and milatuzumab in the preclinical MCL model. SCID mice were injected i.v. with 40×10^6 JeKo cells and observed daily for signs of tumor burden.
Six to eight-week old female SCID mice (cb17 scid/scid) were purchased from Taconic Farms (Hudson, N.Y.) and maintained in pathogen-free, isolation cages. All animals were depleted of murine NK cells with intra-peritoneal (i.p.) injections of 0.2 mg of rat anti-mouse interleukin-2 receptor β monoclonal antibody (TMβ1) 1 day prior to engraftment with human tumor cell lines and then every week. Forty-eight hours post intravenous injection of 40×10^6 Jeko cells via tail vein, 50 mice were randomly distributed into 10 cages. Animals in groups of ten were treated starting at day 15 after engraftment. […] The third group was treated with FTY720 (5 mg/kg) every day for 2 weeks via i.p. The fourth group received milatuzumab (15 mg/kg) every three days, via i.p. injection. The fifth group received the combination of FTY720 and milatuzumab. Animals were monitored daily for signs of tumor burden, including hind limb paralysis, respiratory distress, weight loss, ruffled coat, and distended abdomen. Body weight was measured weekly for the first 3 weeks and then daily. […]

BxPC-3 = assay: Flow cytometry of CD74, HLA-DR, CEACAM5 with directly labeled MAbs, with and without IFN-γ; format: cell-based
Procedure: (§1) Expression of CD74, HLA-DR, and carcinoembryonic antigen (CEACAM5) was determined in untreated cells and cells exposed to 200 U of IFN-γ for 48 h by flow cytometry. Cells were stained with directly labeled MAbs in comparison to a directly labeled human IgG control. Antibodies were labeled using ALEXA FLUOR® 488 (Invitrogen, Carlsbad, Calif.). For determination of cytoplasmic antigen expression, cells were permeabilized prior to staining using the BD CYTOFIX/CYTOPERM™ kit (BD Biosciences, San Jose, Calif.).

Capan-1 = assay: as above; format: cell-based
Procedure: as §1

FSCCL = assay: as above; format: cell-based
Procedure: as §1

HT29 = assay: as above; format: cell-based
Procedure: as §1

KMS11 = assay: as above; format: cell-based
Procedure: as §1

LS174T = assay: as above; format: cell-based
Procedure: as §1

Lovo = assay: as above; format: cell-based
Procedure: as §1

Moser = assay: as above; format: cell-based
Procedure: as §1

Panc-1 = assay: as above; format: cell-based
Procedure: as §1

RL = assay: as above; format: cell-based
Procedure: as §1

U87 = assay: as above; format: cell-based
Procedure: as §1

[2] = test system: Capan-1, Aspc-1, LoVo, HT-29, U87, U118 cells; assay: Cytotoxicity of milatuzumab with and without crosslinking agent or IFN-γ; format: cell-based; settings: regardless of crosslinking agent or IFN-γ
Procedure: We examined whether the ability of anti-CD74 MAbs to kill cancer cells can be increased by using IFN-γ as an inducer of antigen expression. Using a panel of diverse cancer cell lines (including NHL, MM, GBM, and pancreatic and colonic carcinomas), we examined IFN-γ-induced changes in surface and cytoplasmic CD74 expression. Sensitivity of the malignant cells to milatuzumab was assessed with and without IFN-γ by cytotoxicity assays.
The cytotoxicity of anti-CD74 antibodies was examined in the presence or absence of IFN-γ (not shown). As previously observed, in vitro cytotoxicity of milatuzumab required crosslinking (Stein, et al., Blood, 104: 3705-11, 2004). Goat anti-human IgG (GAH) was used for crosslinking in these experiments.

## milatuzumab: fully humanized monoclonal antibody specific for CD74
[1]
  median survival: 33.5 days
BxPC-3; BxPC-3
  % change of cell surface expression with IFNγ: 142.2%
  % change of cytoplasmic expression with IFNγ: 1763.5%
BxPC-3; BxPC-3 + IFNγ 200 U, 48 h
  Cell surface expression (staining with directly labeled MAb): 6.2
BxPC-3; BxPC-3, without IFN-γ
  Cell surface expression (staining with directly labeled MAb): 2.6
Capan-1; Capan + IFNγ 200 U, 48 h
  Cell surface expression (staining with directly labeled MAb): 11.1
Capan-1; Capan-1
  % change of cell surface expression with IFNγ: 152.4%
  % change of cytoplasmic expression with IFNγ: 561.2%
Capan-1; Capan-1, without IFN-γ
  Cell surface expression (staining with directly labeled MAb): 4.4
FSCCL; FSCCL
  % change of cell surface expression with IFNγ: 32.8%
  % change of cytoplasmic expression with IFNγ: 58.5%
FSCCL; FSCCL + IFNγ 200 U, 48 h
  Cell surface expression (staining with directly labeled MAb): 19.0
FSCCL; FSCCL, without IFN-γ
  Cell surface expression (staining with directly labeled MAb): 14.3
HT29; HT29
  % change of cell surface expression with IFNγ: 141.1%
  % change of cytoplasmic expression with IFNγ: 1766.6%
HT29; HT29 + IFNγ 200 U, 48 h
  Cell surface expression (staining with directly labeled MAb): 8.3
HT29; HT29, without IFN-γ
  Cell surface expression (staining with directly labeled MAb): 3.4
KMS11; KMS11
  % change of cell surface expression with IFNγ: 14.0%
  % change of cytoplasmic expression with IFNγ: −1.9%
KMS11; KMS11 + IFNγ 200 U, 48 h
  Cell surface expression (staining with directly labeled MAb): 5.1
KMS11; KMS11, without IFN-γ
  Cell surface expression (staining with directly labeled MAb): 4.4
LS174T; LS174T
  % change of cell surface expression with IFNγ: −11.3%
  % change of cytoplasmic expression with IFNγ: 112.7%
LS174T; LS174T + IFNγ 200 U, 48 h
  Cell surface expression (staining with directly labeled MAb): 5.2
LS174T; LS174T, without IFN-γ
  Cell surface expression (staining with directly labeled MAb): 5.9
Lovo; Lovo
  % change of cell surface expression with IFNγ: 173.7%
  % change of cytoplasmic expression with IFNγ: 756.0%
Lovo; Lovo + IFNγ 200 U, 48 h
  Cell surface expression (staining with directly labeled MAb): 9.2
Lovo; Lovo, without IFN-γ
  Cell surface expression (staining with directly labeled MAb): 3.4
Moser; Moser
  % change of cell surface expression with IFNγ: 16.3%
  % change of cytoplasmic expression with IFNγ: 86.1%
Moser; Moser + IFNγ 200 U, 48 h
  Cell surface expression (staining with directly labeled MAb): 4.8
Moser; Moser, without IFN-γ
  Cell surface expression (staining with directly labeled MAb): 4.1
Panc-1; Panc-1
  % change of cell surface expression with IFNγ: 9.4%
  % change of cytoplasmic expression with IFNγ: 208.7%
Panc-1; Panc-1 + IFNγ 200 U, 48 h
  Cell surface expression (staining with directly labeled MAb): 4.9
Panc-1; Panc-1, without IFN-γ
  Cell surface expression (staining with directly labeled MAb): 4.5
RL; RL
  % change of cell surface expression with IFNγ: 23.8%
  % change of cytoplasmic expression with IFNγ: 3.7%
RL; RL + IFNγ 200 U, 48 h
  Cell surface expression (staining with directly labeled MAb): 25.0
RL; RL, without IFN-γ
  Cell surface expression (staining with directly labeled MAb): 20.2
U87; U87
  % change of cell surface expression with IFNγ: 75.6%
  % change of cytoplasmic expression with IFNγ: 158.8%
U87; U87 + IFNγ 200 U, 48 h
  Cell surface expression (staining with directly labeled MAb): 9.5
U87; U87, without IFN-γ
  Cell surface expression (staining with directly labeled MAb): 5.4
[2]
  cell killing: unable to kill
